# Data reported in patent US9302991B2, “Arylamide derivatives as TTX-S blockers” (RaQualia Pharma Inc., priority 2010, dated 2016).
# Target: T1, human Nav1.7 channels (Homo sapiens, UniProt Q15858)
# T1 construct: expressed in transfected cells; host or cells: CHO
# Assay: FRET assay, human Nav1.7 (EFS on FDSS)
# Assay type: cell-based
# Conditions: CHO cells expressing human Nav1.7, read-out: IC50 against Nav1.7
# Method in brief: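 IC50 was derived from normalized 440 nm fluorescence ratios of the EFS-evoked membrane-potential response read on FDSS. Recombinant CHO cells were sequentially dye-loaded with coumarin/oxonol FRET pair at room temperature in pH 7.4 buffer before compound addition.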
# T1 sequence (Q15858 whole entry): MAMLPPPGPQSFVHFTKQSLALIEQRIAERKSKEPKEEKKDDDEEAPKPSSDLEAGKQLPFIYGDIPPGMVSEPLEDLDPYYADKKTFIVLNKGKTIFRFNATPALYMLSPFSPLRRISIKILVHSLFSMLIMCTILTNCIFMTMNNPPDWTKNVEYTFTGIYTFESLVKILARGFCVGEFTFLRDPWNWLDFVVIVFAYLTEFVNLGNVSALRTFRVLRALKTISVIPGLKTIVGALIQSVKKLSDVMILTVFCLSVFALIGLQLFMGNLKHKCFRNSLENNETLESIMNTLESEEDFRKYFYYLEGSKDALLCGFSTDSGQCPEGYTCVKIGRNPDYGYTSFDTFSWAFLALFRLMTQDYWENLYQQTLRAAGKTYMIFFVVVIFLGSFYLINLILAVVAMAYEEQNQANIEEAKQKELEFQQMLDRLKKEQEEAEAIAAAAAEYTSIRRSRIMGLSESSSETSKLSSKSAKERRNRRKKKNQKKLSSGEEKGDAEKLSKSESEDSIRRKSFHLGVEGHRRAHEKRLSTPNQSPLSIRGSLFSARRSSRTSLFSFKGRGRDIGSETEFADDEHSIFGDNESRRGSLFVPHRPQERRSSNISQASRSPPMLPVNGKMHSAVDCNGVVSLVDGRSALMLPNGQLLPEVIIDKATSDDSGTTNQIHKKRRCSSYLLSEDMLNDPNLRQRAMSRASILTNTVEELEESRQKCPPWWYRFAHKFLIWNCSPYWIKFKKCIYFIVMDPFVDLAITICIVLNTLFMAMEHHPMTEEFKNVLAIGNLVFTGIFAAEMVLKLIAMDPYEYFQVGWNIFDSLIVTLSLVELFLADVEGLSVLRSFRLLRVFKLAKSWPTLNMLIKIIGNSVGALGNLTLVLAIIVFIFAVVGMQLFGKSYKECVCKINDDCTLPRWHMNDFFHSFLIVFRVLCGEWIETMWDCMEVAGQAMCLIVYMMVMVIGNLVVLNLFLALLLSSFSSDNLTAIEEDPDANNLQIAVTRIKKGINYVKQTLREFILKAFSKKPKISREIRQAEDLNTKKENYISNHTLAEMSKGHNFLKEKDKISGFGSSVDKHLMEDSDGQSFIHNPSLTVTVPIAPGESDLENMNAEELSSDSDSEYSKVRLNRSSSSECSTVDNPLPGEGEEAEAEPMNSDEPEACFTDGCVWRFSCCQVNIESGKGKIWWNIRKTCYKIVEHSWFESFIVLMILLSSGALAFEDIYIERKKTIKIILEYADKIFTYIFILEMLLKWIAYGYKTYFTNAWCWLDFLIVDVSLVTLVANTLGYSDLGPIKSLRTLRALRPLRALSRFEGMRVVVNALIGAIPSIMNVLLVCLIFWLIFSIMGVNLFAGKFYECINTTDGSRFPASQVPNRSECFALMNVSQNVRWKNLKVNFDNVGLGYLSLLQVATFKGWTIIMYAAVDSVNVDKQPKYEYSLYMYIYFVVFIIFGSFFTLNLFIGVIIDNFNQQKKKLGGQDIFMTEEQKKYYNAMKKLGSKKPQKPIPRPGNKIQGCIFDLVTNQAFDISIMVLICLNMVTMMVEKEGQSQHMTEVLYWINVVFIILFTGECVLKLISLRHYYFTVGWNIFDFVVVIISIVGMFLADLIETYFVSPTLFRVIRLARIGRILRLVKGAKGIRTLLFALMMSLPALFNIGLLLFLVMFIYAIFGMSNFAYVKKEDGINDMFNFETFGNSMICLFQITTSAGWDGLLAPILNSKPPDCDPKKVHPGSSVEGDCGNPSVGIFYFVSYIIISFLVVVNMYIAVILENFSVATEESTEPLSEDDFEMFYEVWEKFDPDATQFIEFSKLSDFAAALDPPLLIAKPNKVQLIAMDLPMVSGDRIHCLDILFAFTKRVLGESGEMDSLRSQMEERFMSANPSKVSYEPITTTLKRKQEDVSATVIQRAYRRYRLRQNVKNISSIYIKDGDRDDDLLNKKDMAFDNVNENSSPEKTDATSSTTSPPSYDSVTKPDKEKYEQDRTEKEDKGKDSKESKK
row,SMILES,IC50 [nM]
1,"CC(NC(=O)c1ccnc(NC(=O)C2CC2)c1)c1ccc(OCC(F)(F)C(F)(F)F)nc1 (single isomer, unassigned) [Example 689, 2-(cyclopropanecarboxamido)-N-(1-(6-(2,2,3,3,3-pentafluoropropoxy)pyridin-3-yl)ethyl)isonicotinamide]",< 1000
2,"Cc1cc(C(=O)NC(C)c2ccc(OCC(F)(F)C(F)(F)F)nc2)cc(NC(=O)C(C)C)n1 (single isomer, unassigned) [Example 693, 2-isobutyramido-6-methyl-N-(1-(6-(2,2,3,3,3-pentafluoropropoxy)pyridin-3-yl)ethyl)isonicotinamide]",< 1000
3,"CCC(=O)Nc1cc(C(=O)NC(C)c2ccc(OCC(C)(F)F)nc2)ccn1 (single isomer, unassigned) [Example 781, N-(1-(6-(2,2-difluoropropoxy)pyridin-3-yl)ethyl)-2-propionamidoisonicotinamide]",< 1000
4,"CC(NC(=O)c1ccnc(NC(=O)C2CC2)c1)c1ccc(OCC(C)(F)F)nc1 (single isomer, unassigned) [Example 782, 2-(cyclopropanecarboxamido)-N-(1-(6-(2,2-difluoropropoxy)pyridin-3-yl)ethyl)isonicotinamide]",< 1000
5,"CC(=O)Nc1cc(C(=O)NC(C)c2ccc(OCC(C)(F)F)nc2)cc(C)n1 (single isomer, unassigned) [Example 783, 2-acetamido-N-(1-(6-(2,2-difluoropropoxy)pyridin-3-yl)ethyl)-6-methylisonicotinamide]",< 1000
6,"CC(C)C(=O)Nc1cc(C(=O)NC(C)c2ccc(OCC(C)(F)F)nc2)ccn1 (single isomer, unassigned) [Example 785, N-(1-(6-(2,2-difluoropropoxy)pyridin-3-yl)ethyl)-2-isobutyramidoisonicotinamide]",< 1000
7,"CCCC(=O)Nc1cc(C(=O)NC(C)c2ccc(OCC(C)(F)F)nc2)ccn1 (single isomer, unassigned) [Example 787, 2-butyramido-N-(1-(6-(2,2-difluoropropoxy)pyridin-3-yl)ethyl)isonicotinamide]",< 1000
8,"Cc1cc(C(=O)NC(C)c2ccc(OCC(F)(F)F)cc2Cl)cc(NC(=O)C(C)C)n1 (single isomer, unassigned) [Example 801, N-(1-(2-chloro-4-(2,2,2-trifluoroethoxy)phenyl)ethyl)-2-isobutyramido-6-methylisonicotinamide]",< 1000

# Further lines, results first:
row,IC50 [nM],SMILES
1,< 1000,"CC(=O)Nc1cc(C(=O)NC(C)c2ccc(OCC(F)(F)F)cc2Cl)ccn1 (single isomer, unassigned) [Example 796, 2-acetamido-N-(1-(2-chloro-4-(2,2,2-trifluoroethoxy)phenyl)ethyl)isonicotinamide]"
2,< 1000,"CCC(=O)Nc1cc(C(=O)NC(C)c2ccc(OCC(F)(F)F)cc2Cl)ccn1 (single isomer, unassigned) [Example 797, N-(1-(2-chloro-4-(2,2,2-trifluoroethoxy)phenyl)ethyl)-2-propionamidoisonicotinamide]"
3,< 1000,"CC(NC(=O)c1ccnc(NC(=O)C2CC2)c1)c1ccc(OCC(F)(F)F)cc1Cl (single isomer, unassigned) [Example 798, N-(1-(2-chloro-4-(2,2,2-trifluoroethoxy)phenyl)ethyl)-2-(cyclopropanecarboxamido)isonicotinamide]"
4,< 1000,"CC(C)C(=O)Nc1cc(C(=O)NC(C)c2ccc(OCC(F)(F)F)cc2Cl)ccn1 (single isomer, unassigned) [Example 799, N-(1-(2-chloro-4-(2,2,2-trifluoroethoxy)phenyl)ethyl)-2-isobutyramidoisonicotinamide]"
5,< 1000,"CC(=O)Nc1cc(C(=O)NC(C)c2ccc(OCC(F)(F)F)cc2Cl)cc(C)n1 (single isomer, unassigned) [Example 800, 2-acetamido-N-(1-(2-chloro-4-(2,2,2-trifluoroethoxy)phenyl)ethyl)-6-methylisonicotinamide]"
